We go through 1 compound from US9254290B2, “Method for screening diabetes treating agent” (GWANGJU INSTITUTE OF SCIENCE AND TECHNOLOGY, priority 2010, dated 2016).

In one assay the target is T1, GLUT 1 (Homo sapiens, UniProt P11166).
T1 sequence (P11166 1-492): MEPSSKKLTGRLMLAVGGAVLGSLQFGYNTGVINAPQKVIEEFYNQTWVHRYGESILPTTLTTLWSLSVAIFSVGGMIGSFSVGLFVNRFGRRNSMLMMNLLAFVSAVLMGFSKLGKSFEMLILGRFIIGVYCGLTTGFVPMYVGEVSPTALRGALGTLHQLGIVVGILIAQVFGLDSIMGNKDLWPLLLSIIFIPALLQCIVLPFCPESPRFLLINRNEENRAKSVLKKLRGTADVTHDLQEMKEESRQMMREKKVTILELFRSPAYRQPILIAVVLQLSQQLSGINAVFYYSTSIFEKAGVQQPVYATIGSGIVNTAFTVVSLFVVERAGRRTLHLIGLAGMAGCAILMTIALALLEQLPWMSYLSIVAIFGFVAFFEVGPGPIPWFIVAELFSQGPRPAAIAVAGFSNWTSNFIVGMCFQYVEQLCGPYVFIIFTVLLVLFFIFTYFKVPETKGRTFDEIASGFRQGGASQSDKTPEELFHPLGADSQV
The conditions noted are these: cited from earlier work.

In another assay the test system is 3T3-L1 adipocytes. The assay can be described thus: 6-NBDG uptake screening in 3T3-L1 adipocytes, 96-well, fluorescent microplate reader. It is filed as cell-based, murine. The conditions noted are these: 100 nM insulin or 250 μM zinc sulfate; 6-NBDG vs 2-NBDG. On the procedure:
3T3-L1 murine fibroblasts were maintained in proliferation media, consisting of DMEM supplemented with 10% FBS, 50 units/mL penicillin and 50 μg/mL streptomycin. 3T3-L1 fibroblasts were induced to differentiate into adipocytes as follows: 48 h postconfluent cells (designated day 0) were cultured in DMEM supplemented 10% FBS, 0.5 mM 3-isobutyl-1-methyl-xanthine, 2 μg/ml dexamethasone, 1 μg/ml insulin, 50 units/mL penicillin and 50 μg/mL streptomycin for 2 days. Every 2 days thereafter, the cells were incubated with fresh DMEM supplemented with 10% FBS and 1 μg/ml insulin. 3T3-L1 adipocytes were used for experiments 8 days after the induction of differentiation.
Three cell lines were chosen to test if NBDG can be used to detect insulin-stimulated glucose uptake in a 96 well plate culture format, which is more suitable for cell-based screening to identify novel insulin mimetic compounds. The cell lines chosen were Huh7 hepatocytes, C2C12 myoblasts and 3T3-L1 pre-adipocytes, which represent the major body tissue types that are sensitive to the action of insulin (liver, muscle and fat). 10^4 cells/well were seeded in a black, 96 well tissue culture plate (BD Falcon, NJ, USA). C2C12 myoblasts and 3T3-L1 adipocytes were induced to undergo differentiation into myotubes and adipocytes, respectively, to compare the NDBG signal in proliferating and differentiated cells. NBDG uptake was measured following treatment with 10 nM or 100 nM insulin, and 1 μM or 10 μM rosiglitazone (an insulin-sensitizing agent), using a fluorescent microplate reader (SpectraMAX GeminiXS and SoftMax Pro V5 software, Molecular Devices, CA, USA). Cells were cultured in serum-free low glucose culture media for 3 h before the addition of insulin.
To test the NBDG-based screening system, a combinatorial chemical library of 576 triazine-based small molecules was screened at a concentration of 5 μM. The combinatorial library was provided by Professor Young-Tae Chang, Department of Chemistry, National University of Singapore.
To test if this screening protocol could detect new insulin mimetic compounds, a combinatorial chemical library of 576 triazine-based small molecules was screened.

As for `O=[N+]([O-])c1ccc(NCC2OC(O)C(O)C(O)[C@@H]2O)c2nonc12` (some centres unmarked) [6-NBDG, 6-(N-(7-nitrobenz-2-oxa-1,3-diazol-4-yl)amino)-6-deoxyglucose, reference compound], the “affinity for GLUT 1 relative to glucose” value at GLUT 1 is listed as 300 times. The “fluorescent signal of probe after insulin-stimulated uptake” value with 3T3-L1 adipocytes is “produced a greater fluorescent signal than 2-NBDG”.
